“And” between values parts separate entries of the source, which are not always exact repeats. Equal values may be shown once. “Also recorded” adds a separate entry of the source.
How the values were obtained:
[1] = test system: familial diarrhea syndrome patients; test: Metformin treatment trial (II), pilot study with increasing metformin doses; format: in vivo, human; settings: four of five individuals
Experimental: The dose given in the first metformin treatment trial (Table 2) was modest, and another pilot study with increasing metformin doses was started, including five individuals with high stool frequencies (22-42 per week). Patients with a history of ileus or inflammatory bowel disease were not included. Stool frequency was recorded continously for eight weeks. At day 1 of each week, blood samples were drawn for control of s-glucose, hemoglobin and creatinine. Symptoms and potential side-effects were followed closely by a weekly telephone call from the gastroenterologist.
The patients were without medication in week 1, and then the dose of metformin was increased each week as shown by the horizontal bars, starting at the beginning of week 2 and stopping by the end of week 5. Patient identifiers are listed in bold red letters in the panels.

[2] = test system: familial diarrhea syndrome patients; test: Metformin treatment trial (I), pilot study in patients; format: in vivo, human
Experimental: A pilot study (I) with metformin was performed in six individuals from branch A, with a low peroral dose of 500 mg twice daily. The trial lasted 10 weeks, and the patients registered number of stools (and texture) during week 1, 5 and 10. The first week was without treatment and the patients received 500 mg x 2 during weeks 2- 5. Weeks 6 - 10 were without treatment. […] Number of stools per week was reduced by 40% in two patients with high stool frequency (35-36 per week). Three patients reported that stools were firmer during treatment.

[3] = target: mutant guanylate cyclase C GC-C S840I (p.Ser840Ile), transiently expressed in HEK293T cells (human); test: cell-based or functional assay
[4] = peroral 500 mg twice daily during weeks 2-5

Row | Compound | dose-response effect on number of stools ([1]; weeks 2-5) | reduction in weekly average stools/day ([1]; weeks 2-5) | maximal reduction of number of stools ([1]; weeks 2-5 (Fig. 4)) | Side effects [2, 4] | Week 5 Stool firmness [2, 4] | Week 5 Stools per week ([2]; peroral 500 mg twice daily during weeks 2-5, week 1 (baseline) and weeks 6-10 without treatment) | stools during treatment (patient-reported firmness) ([2]; three of six patients, 500 mg twice daily) | Number of stools per week was reduced by ([2]; two patients with high stool frequency (35-36 per week), 500 mg twice daily) [%] | EC50 of uroguanylin for cGMP production, relative to the WT receptor (fold lower than WT) [3]
1 | CN(C)C(=N)NC(=N)N [metformin, 1,1-dimethylbiguanide] | clear dose-response effect; also recorded: significant dose-response effect | 30-40% | 30-40% | Intermittent nausea and None (4×) and Increased bloating | Increased | 13 (2×) and 18 and 20 (2×) and 22 | firmer | 40 | –
2 | uroguanylin peptide (from UniProt Q16661 97-112) | – | – | – | – | – | – | – | – | 6

Source: patent EP2599789A1, “Marker and method for diagnosing diarrhea syndrome” (Bergen Teknologioverføring AS, priority 2011, dated 2013)
